The values that follow come from US10988524B2, “Modified relaxin B chain peptides and their therapeutic use” (priority 2018, dated 2021).

Non-standard residues stand in square brackets, D forms with d. Residues, ends and D or L forms follow the SMILES beside them. Phe(4-F) = N[C@@H](Cc1ccc(F)cc1)C(=O)O; Nle = CCCC[C@H](N)C(=O)O; Aib = CC(C)(N)C(=O)O

A short description of data set [1]: Solubility testing of peptides in buffer. The format is physicochemical. Particulars: Phosphate buffer 50 mM pH 7.4; target solubility 2.0 mg/ml; ~19 h; read-out: Solubility phosphate buffer pH 7.4.
Data set [2] addresses T1, RXFP1 (Homo sapiens, UniProt Q9HBX9).
T1 sequence (Q9HBX9 1-757): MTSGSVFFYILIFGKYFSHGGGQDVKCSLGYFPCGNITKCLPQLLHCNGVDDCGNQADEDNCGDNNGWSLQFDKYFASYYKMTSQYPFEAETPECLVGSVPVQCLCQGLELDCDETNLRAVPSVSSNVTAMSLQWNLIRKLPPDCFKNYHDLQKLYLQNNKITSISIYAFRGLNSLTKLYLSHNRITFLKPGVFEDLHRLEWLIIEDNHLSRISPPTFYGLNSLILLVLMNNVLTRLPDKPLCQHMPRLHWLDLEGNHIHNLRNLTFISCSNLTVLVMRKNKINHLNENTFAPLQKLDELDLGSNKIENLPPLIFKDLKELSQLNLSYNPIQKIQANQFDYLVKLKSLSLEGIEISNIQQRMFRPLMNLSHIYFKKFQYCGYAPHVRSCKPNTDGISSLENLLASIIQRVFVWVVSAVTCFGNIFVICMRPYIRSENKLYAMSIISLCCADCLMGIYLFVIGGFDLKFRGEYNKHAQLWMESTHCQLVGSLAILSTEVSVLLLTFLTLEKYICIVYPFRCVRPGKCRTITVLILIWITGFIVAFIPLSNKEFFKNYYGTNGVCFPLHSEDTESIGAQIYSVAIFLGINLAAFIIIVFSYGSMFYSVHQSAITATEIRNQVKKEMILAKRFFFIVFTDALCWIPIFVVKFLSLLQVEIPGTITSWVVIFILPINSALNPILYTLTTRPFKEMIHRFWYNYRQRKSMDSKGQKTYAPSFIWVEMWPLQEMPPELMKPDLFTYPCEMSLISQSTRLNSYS
Kind of data set: OVCAR5 cAMP assay (RXFP1 agonist activity, HTRF). The conditions noted are these: for Emax: OVCAR-5, read-out: cAMP assay in OVCAR 5 cells Emax, maximal intracellular cAMP relative to H2-relaxin in the same test occasion; for EC50: cAMP assay in OVCAR 5 cells EC50 (nM), OVCAR5 cells expressing endogenous RXFP1, cAMP by HTRF, 30 min at 37° C., 1 mM IBMX. Background: cAMP levels reflect the balance of adenylyl cyclase and phosphodiesterase activity.

In general, solubility refers to the dissolved amount per volume that the medium holds. In the case of `CC[C@H](C)[C@H](NC(=O)[C@H](CCC(N)=O)NC(=O)[C@H](C)NC(=O)[C@H](CCCNC(=N)N)NC(=O)[C@@H](NC(=O)[C@H](CCCCN)NC(=O)[C@H](CCC(=O)O)NC(=O)[C@H](CCCNC(=N)N)NC(=O)CNC(=O)[C@H](CCC(=O)O)NC(=O)[C@H](CC(C)C)NC(C)=O)C(C)C)C(=O)NC(C)(C)C(=O)NC(C)(C)C(=O)N[C@@H](CCC(=O)O)C(=O)NCC(=O)N[C@@H](CCC(N)=O)C(=O)N[C@@H](CO)C(=O)N[C@H](C(=O)N[C@@H](Cc1c[nH]c2ccccc12)C(=O)N[C@@H](CO)C(=O)NC(C)(C)C(=O)N[C@@H](CCCNC(=N)N)C(=O)N[C@@H](CCCCN)C(=O)N[C@@H](CCCCN)C(N)=O)[C@@H](C)O` [compound 54] (Ac-LEGREKVRAQI[Aib][Aib]EGQSTWS[Aib]RKK-NH2), the solubility in data set [1] was not below 2400 µg/mL. Besides, the “cAMP assay in OVCAR 5 cells Emax” value in data set [2] (maximal intracellular cAMP relative to H2-relaxin in the same test occasion) turned out to be 96%.
A word on the Emax: it is the greatest response seen or fitted, relative to the assay's reference. Take `CCCC[C@H](NC(=O)CNC(=O)[C@H](CCC(=O)O)NC(=O)C(C)(C)NC(=O)C(C)(C)NC(=O)[C@@H](NC(=O)[C@H](CCC(N)=O)NC(=O)[C@H](C)NC(=O)[C@H](CCCNC(=N)N)NC(=O)[C@@H](NC(=O)[C@H](CCCCN)NC(=O)[C@H](CCC(=O)O)NC(=O)[C@H](CCCNC(=N)N)NC(=O)CNC(=O)[C@H](CCC(=O)O)NC(=O)[C@H](CC(C)C)NC(C)=O)C(C)C)[C@@H](C)CC)C(=O)N[C@@H](CO)C(=O)N[C@H](C(=O)N[C@@H](Cc1ccc(O)cc1)C(=O)N[C@@H](CO)C(=O)NC(C)(C)C(=O)N[C@@H](CCCNC(=N)N)C(=O)N[C@@H](CCCCN)C(=O)N[C@@H](CCCCN)C(N)=O)[C@@H](C)O` [compound 53] (Ac-LEGREKVRAQI[Aib][Aib]EG[Nle]STYS[Aib]RKK-NH2): the solubility in data set [1] was not below 2100 µg/mL. For the same compound, the Emax in data set [2] is 75%.
Broadly, the EC50 is the concentration needed to bring the measured effect to its halfway point. A high value points to weaker potency. In the case of `CCCC[C@H](NC(=O)CNC(=O)[C@H](CCC(=O)O)NC(=O)C(C)(C)NC(=O)C(C)(C)NC(=O)[C@@H](NC(=O)[C@H](CCC(N)=O)NC(=O)[C@H](C)NC(=O)[C@H](CCCNC(=N)N)NC(=O)[C@@H](NC(=O)[C@H](CCCCN)NC(=O)[C@H](CCC(=O)O)NC(=O)[C@H](CCCNC(=N)N)NC(=O)CNC(=O)[C@H](CCC(=O)O)NC(=O)[C@H](CC(C)C)NC(C)=O)C(C)C)[C@@H](C)CC)C(=O)N[C@@H](CO)C(=O)N[C@@H](CCCNC(=N)N)C(=O)N[C@@H](Cc1c[nH]c2ccccc12)C(=O)N[C@@H](CO)C(=O)NC(C)(C)C(=O)N[C@@H](CCCNC(=N)N)C(=O)N[C@@H](CCCNC(=N)N)C(=O)N[C@@H](CCCNC(=N)N)C(N)=O` [compound 55] (Ac-LEGREKVRAQI[Aib][Aib]EG[Nle]SRWS[Aib]RRR-NH2), in data set [1], the solubility was not below 2500 µg/mL. Moreover, in data set [2], the Emax came to 88% and the concentration giving a half-maximal response (EC50) is not above 5 nM.
As to `CCCC[C@H](NC(=O)CNC(=O)[C@H](CCC(=O)O)NC(=O)C(C)(C)NC(=O)C(C)(C)NC(=O)[C@@H](NC(=O)[C@H](CCC(N)=O)NC(=O)[C@H](C)NC(=O)[C@H](CCCNC(=N)N)NC(=O)[C@@H](NC(=O)[C@H](CCCCN)NC(=O)[C@H](CCC(=O)O)NC(=O)[C@H](CCCNC(=N)N)NC(=O)CNC(=O)[C@H](CCC(=O)O)NC(=O)[C@H](CC(C)C)NC(C)=O)C(C)C)[C@@H](C)CC)C(=O)N[C@@H](CO)C(=O)N[C@H](C(=O)N[C@@H](Cc1c[nH]c2ccccc12)C(=O)N[C@@H](CO)C(=O)NC(C)(C)C(=O)N[C@@H](CCCNC(=N)N)C(=O)N[C@@H](CCCNC(=N)N)C(=O)N[C@@H](CCCNC(=N)N)C(N)=O)[C@@H](C)O` [compound 50] (Ac-LEGREKVRAQI[Aib][Aib]EG[Nle]STWS[Aib]RRR-NH2), the solubility in data set [1] was not below 2300 µg/mL. Also, in data set [2], the maximum response (Emax) stood at 90% and the EC50 is not above 5 nM.
Turning to `CC[C@H](C)[C@H](NC(=O)[C@H](CCC(N)=O)NC(=O)[C@H](C)NC(=O)[C@H](CCCNC(=N)N)NC(=O)[C@@H](NC(=O)[C@H](CCCCN)NC(=O)[C@H](CCC(=O)O)NC(=O)[C@H](CCCNC(=N)N)NC(=O)CNC(=O)[C@H](CCC(=O)O)NC(=O)[C@H](CC(C)C)NC(C)=O)C(C)C)C(=O)NC(C)(C)C(=O)NC(C)(C)C(=O)N[C@@H](CCC(=O)O)C(=O)NCC(=O)N[C@@H](CCC(N)=O)C(=O)N[C@@H](CO)C(=O)N[C@H](C(=O)N[C@@H](Cc1ccc(F)cc1)C(=O)N[C@@H](CO)C(=O)NC(C)(C)C(=O)N[C@@H](CCCNC(=N)N)C(=O)N[C@@H](CCCCN)C(=O)N[C@@H](CCCCN)C(N)=O)[C@@H](C)O` [compound 59] (Ac-LEGREKVRAQI[Aib][Aib]EGQST[Phe(4-F)]S[Aib]RKK-NH2), the solubility in data set [1] was not below 2400 µg/mL. Further, the Emax in data set [2] came to 86%.
Take `CC[C@H](C)[C@H](NC(=O)[C@H](CCC(N)=O)NC(=O)[C@H](C)NC(=O)[C@H](CCCNC(=N)N)NC(=O)[C@@H](NC(=O)[C@H](CCCCN)NC(=O)[C@H](CCC(=O)O)NC(=O)[C@H](CCCNC(=N)N)NC(=O)CNC(=O)[C@H](CCC(=O)O)NC(=O)[C@H](CC(C)C)NC(C)=O)C(C)C)C(=O)NC(C)(C)C(=O)NC(C)(C)C(=O)N[C@@H](CCC(=O)O)C(=O)NCC(=O)N[C@@H](CCC(N)=O)C(=O)N[C@@H](CO)C(=O)N[C@H](C(=O)N[C@@H](Cc1ccc(O)cc1)C(=O)N[C@@H](CO)C(=O)NC(C)(C)C(=O)N[C@@H](CCCNC(=N)N)C(=O)N[C@@H](CCCCN)C(=O)N[C@@H](CCCCN)C(N)=O)[C@@H](C)O` [compound 58] (Ac-LEGREKVRAQI[Aib][Aib]EGQSTYS[Aib]RKK-NH2): the solubility in data set [1] is not below 2000 µg/mL. For the same compound, the maximum response (Emax) in data set [2] stood at 93%.
For `CCCC[C@H](NC(=O)CNC(=O)[C@H](CCC(=O)O)NC(=O)C(C)(C)NC(=O)C(C)(C)NC(=O)[C@@H](NC(=O)[C@H](CCC(N)=O)NC(=O)[C@H](C)NC(=O)[C@H](CCCNC(=N)N)NC(=O)[C@@H](NC(=O)[C@H](CCCCN)NC(=O)[C@H](CCC(=O)O)NC(=O)[C@H](CCCNC(=N)N)NC(=O)CNC(=O)[C@H](CCC(=O)O)NC(=O)[C@H](CC(C)C)NC(C)=O)C(C)C)[C@@H](C)CC)C(=O)N[C@@H](CO)C(=O)N[C@@H](CCC(N)=O)C(=O)N[C@@H](Cc1c[nH]c2ccccc12)C(=O)N[C@@H](CO)C(=O)NC(C)(C)C(=O)N[C@@H](CCCNC(=N)N)C(=O)N[C@@H](CCCNC(=N)N)C(=O)N[C@@H](CCCNC(=N)N)C(N)=O` [compound 52] (Ac-LEGREKVRAQI[Aib][Aib]EG[Nle]SQWS[Aib]RRR-NH2), the solubility in data set [1] was not below 2300 µg/mL. Moreover, in data set [2], the Emax stood at 94% and the EC50 was not above 10 nM.
Take `CCCC[C@H](NC(=O)CNC(=O)[C@H](CCC(=O)O)NC(=O)C(C)(C)NC(=O)C(C)(C)NC(=O)[C@@H](NC(=O)[C@H](CCC(N)=O)NC(=O)[C@H](C)NC(=O)[C@H](CCCNC(=N)N)NC(=O)[C@@H](NC(=O)[C@H](CCCCN)NC(=O)[C@H](CCC(=O)O)NC(=O)[C@H](CCCNC(=N)N)NC(=O)CNC(=O)[C@H](CCC(=O)O)NC(=O)[C@H](CC(C)C)NC(C)=O)C(C)C)[C@@H](C)CC)C(=O)N[C@@H](CO)C(=O)N[C@H](C(=O)N[C@@H](Cc1ccccc1)C(=O)N[C@@H](CO)C(=O)NC(C)(C)C(=O)N[C@@H](CCCNC(=N)N)C(=O)N[C@@H](CCCCN)C(=O)N[C@@H](CCCCN)C(N)=O)[C@@H](C)O` [compound 51] (Ac-LEGREKVRAQI[Aib][Aib]EG[Nle]STFS[Aib]RKK-NH2): in data set [1], the solubility is not below 2400 µg/mL. In addition, the Emax in data set [2] amounted to 98%.
